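Where inhibition never reached the appropriate level, the endpoint shown equals the highest concentration tested. Otherwise, values were interpolated linearly from a five-concentration, 48-hour dose response in 96-well plates. TGI denotes the concentration required for complete inhibition of growth.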

Among the test systems are SNB-75 CNS; CCRF-CEM leukemia; M14 melanoma; HOP-62 NSCLC; NCI-H226 lung; RPMI-8226 leukemia; OVCAR-3 ovarian; NCI-H522 lung; HOP-92 NSCLC; HCT-116 colon; SF-268 CNS.
What all share (test): DTP human tumour cell line panel, 48 h

`C=C1CC(Cn2cc(Br)c(=O)[nH]c2=O)(c2ccc(Br)cc2)OC1=O` (stereo not drawn): the TGI in the assay with SNB-75 CNS amounted to 26.7 µM; in the assay on CCRF-CEM leukemia, 5.26 µM; in the assay with M14 melanoma, 3.22 µM; with HOP-62 NSCLC, 31 µM; in the assay on NCI-H226 lung, 36.6 µM; in the assay with RPMI-8226 leukemia, 1.61 µM. In addition, the TGI is over 35 µM with OVCAR-3 ovarian; 3.19 µM with NCI-H522 lung; 2.96 µM in the assay with HOP-92 NSCLC; 2.75 µM in the assay on HCT-116 colon; 41.3 µM with SF-268 CNS.

On to `CC(=O)CCCCCCCCCCCC[C@@H]1CC[C@H](C)[C@H](O)N1`, for which the TGI with SNB-75 CNS, with CCRF-CEM leukemia, with M14 melanoma, with HOP-62 NSCLC, in the assay with NCI-H226 lung and in the assay with RPMI-8226 leukemia was over 100 µM throughout. Further, the TGI in the assay with OVCAR-3 ovarian, with NCI-H522 lung, with HOP-92 NSCLC, with HCT-116 colon and in the assay with SF-268 CNS was over 100 µM throughout.

As to `Cc1ccc(S(=O)(=O)CC2CCCn3c2c(C#N)c2ccccc23)cc1` (stereo not drawn), the TGI in the assay with SNB-75 CNS, in the assay with CCRF-CEM leukemia, in the assay with M14 melanoma, with HOP-62 NSCLC, in the assay with NCI-H226 lung and with RPMI-8226 leukemia was over 100 µM each time. The concentration for total growth inhibition (TGI) in the assay on OVCAR-3 ovarian, with NCI-H522 lung, in the assay on HOP-92 NSCLC, in the assay with HCT-116 colon and with SF-268 CNS was over 100 µM throughout.

With `COCCN(C(=O)c1ccccc1)C1CCC(=O)c2[nH]c3ccccc3c21` (stereo not drawn), the TGI in the assay on SNB-75 CNS came to 16.5 µM; in the assay with CCRF-CEM leukemia, 26.8 µM; in the assay with M14 melanoma, 20.4 µM; in the assay on HOP-62 NSCLC, 11.5 µM; in the assay with NCI-H226 lung, 20.6 µM; in the assay on RPMI-8226 leukemia, 58.6 µM. The concentration for total growth inhibition (TGI) in the assay on OVCAR-3 ovarian was found to be 25.3 µM; in the assay with NCI-H522 lung, 6.93 µM; in the assay with HOP-92 NSCLC it was 25 µM; in the assay on HCT-116 colon, 26.5 µM; in the assay on SF-268 CNS, 28.4 µM.

On to `CCn1c(SCc2nnc(Nc3ccccc3)s2)nc2ccccc2c1=O`, for which the total growth inhibition concentration (TGI) in the assay with SNB-75 CNS is 14.2 µM; in the assay on CCRF-CEM leukemia, over 85.7 µM; with M14 melanoma it was over 61.4 µM; in the assay on HOP-62 NSCLC, 12.5 µM; with NCI-H226 lung, 7.75 µM; in the assay with RPMI-8226 leukemia, 37.1 µM. In addition, the total growth inhibition concentration (TGI) in the assay on OVCAR-3 ovarian worked out at 41.2 µM; with NCI-H522 lung it was 7.63 µM; with HOP-92 NSCLC it was 9.11 µM; in the assay with HCT-116 colon, 3.97 µM; in the assay with SF-268 CNS, 22.3 µM.

Turning to `CCCC(CC)c1cc(O)c(O)cc1C(CC)CCC` (stereo not drawn), the total growth inhibition concentration (TGI) with SNB-75 CNS, with CCRF-CEM leukemia, in the assay with M14 melanoma, in the assay with HOP-62 NSCLC, in the assay with NCI-H226 lung and in the assay on RPMI-8226 leukemia was over 10 µM throughout. The concentration for total growth inhibition (TGI) in the assay on OVCAR-3 ovarian, in the assay with NCI-H522 lung, in the assay with HOP-92 NSCLC, in the assay on HCT-116 colon and in the assay with SF-268 CNS was over 10 µM throughout.

`Cc1ccc(C2(N3CCOCC3)OC(C)(C)c3cccc4cccc2c34)cc1` (stereo not drawn): the total growth inhibition concentration (TGI) was determined as 30.5 µM in the assay on SNB-75 CNS; 65.7 µM in the assay on CCRF-CEM leukemia; 32.7 µM in the assay with M14 melanoma; 32.9 µM in the assay with HOP-62 NSCLC; 35.8 µM in the assay on NCI-H226 lung; 37.9 µM in the assay on RPMI-8226 leukemia. The concentration for total growth inhibition (TGI) in the assay on OVCAR-3 ovarian is 34.4 µM; in the assay with NCI-H522 lung, 30.8 µM; in the assay on HOP-92 NSCLC it was 25.5 µM; in the assay on HCT-116 colon it was 36.9 µM; in the assay with SF-268 CNS, 28.7 µM.

In the case of `CCCCN(CCCC)C1=Nc2ccccc2-n2c(nnc2C(=O)OCC)C1`, the total growth inhibition concentration (TGI) with SNB-75 CNS, in the assay on CCRF-CEM leukemia, in the assay with M14 melanoma, with HOP-62 NSCLC, in the assay with NCI-H226 lung and with RPMI-8226 leukemia was over 100 µM throughout. Moreover, the total growth inhibition concentration (TGI) is over 100 µM in the assay on OVCAR-3 ovarian; over 100 µM in the assay with NCI-H522 lung; 81.5 µM in the assay on HOP-92 NSCLC; over 100 µM in the assay with HCT-116 colon; over 100 µM in the assay on SF-268 CNS.

One may read the TGI as the concentration at which net growth stops. A low value points to more potent growth arrest.

The values above are taken from PubChem BioAssay (NCI).
